What was measured:
Assay in all cases: radiometric kinase profiling (33 PanQinase)
Type in all cases: biochemical
IKBKB = target: T1, IKBKB (Homo sapiens, UniProt O14920); settings: read-out: Inhibitory effect (%) IKBKB
T1 construct: purchased ProQinase (33PanQinase Activity Assay)
T1 sequence (O14920 1-756): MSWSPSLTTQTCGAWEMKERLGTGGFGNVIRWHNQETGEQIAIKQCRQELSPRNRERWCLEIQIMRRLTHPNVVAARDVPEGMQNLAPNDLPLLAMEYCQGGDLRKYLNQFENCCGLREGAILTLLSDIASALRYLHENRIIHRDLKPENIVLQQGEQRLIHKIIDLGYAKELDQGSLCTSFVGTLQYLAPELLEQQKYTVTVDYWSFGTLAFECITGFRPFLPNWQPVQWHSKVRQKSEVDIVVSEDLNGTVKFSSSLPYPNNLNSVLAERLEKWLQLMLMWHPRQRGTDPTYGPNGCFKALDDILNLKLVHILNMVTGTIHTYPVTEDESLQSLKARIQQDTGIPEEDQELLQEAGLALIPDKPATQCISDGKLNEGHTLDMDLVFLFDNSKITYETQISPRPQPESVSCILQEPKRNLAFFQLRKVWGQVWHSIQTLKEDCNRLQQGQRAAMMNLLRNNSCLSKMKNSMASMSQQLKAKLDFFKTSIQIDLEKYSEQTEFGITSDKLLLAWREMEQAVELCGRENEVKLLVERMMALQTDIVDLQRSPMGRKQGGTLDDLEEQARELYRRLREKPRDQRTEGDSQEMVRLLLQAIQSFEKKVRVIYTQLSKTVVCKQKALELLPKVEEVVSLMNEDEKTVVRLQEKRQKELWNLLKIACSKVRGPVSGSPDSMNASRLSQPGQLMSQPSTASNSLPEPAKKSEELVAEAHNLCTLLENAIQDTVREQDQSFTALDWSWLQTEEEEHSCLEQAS
How it was run: (§1)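 Enzyme/substrate mixes were incubated with [γ-33P]-ATP and compound (added as a 0.1 μM solution in 10% DMSO) at 30 °C for 60 min, then stopped with H3PO4 and washed with NaCl. 33P incorporation was scintillation-counted, and residual activity (%) was normalized to untreated control and background.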

DYRK1A = target: T2, DYRK1A (Homo sapiens, UniProt Q13627); settings: read-out: Inhibitory effect (%) DYRK1A
T2 construct: purchased Proqinase, Germany
How it was run: as §1

JAK1 = target: T3, JAK1 (Homo sapiens, UniProt P23458); settings: read-out: Inhibitory effect (%) JAK1
T3 construct: purchased ProQinase (33PanQinase Activity Assay)
How it was run: as §1

CSNK1G2 = target: T4, CSNK1G2 (Homo sapiens, UniProt P78368); settings: read-out: Inhibitory effect (%) CSNK1G2
T4 construct: purchased Proqinase, Germany
How it was run: as §1

DNAPK = target: T5, DNAPK (Homo sapiens, UniProt P78527); settings: read-out: Inhibitory effect (%) DNAPK
T5 construct: purchased Proqinase, Germany
How it was run: as §1

FER = target: T6, FER (Homo sapiens, UniProt P16591); settings: read-out: Inhibitory effect (%) FER
T6 construct: purchased ProQinase (33PanQinase Activity Assay)
How it was run: as §1

LIMK1 = target: T7, LIMK1 (Homo sapiens, UniProt P53667); settings: read-out: Inhibitory effect (%) LIMK1
T7 construct: purchased ProQinase (33PanQinase Activity Assay)
How it was run: as §1

SRC = target: T8, SRC (Homo sapiens, UniProt P12931); settings: read-out: Inhibitory effect (%) SRC
T8 construct: purchased ProQinase (33PanQinase Activity Assay)
How it was run: as §1

CSNK2A1 = target: T9, CSNK2A1 (Homo sapiens, UniProt P68400); settings: read-out: Inhibitory effect (%) CSNK2A1
T9 construct: purchased Proqinase, Germany
How it was run: as §1

MAPKAPK2 = target: T10, MAPKAPK2 (Homo sapiens, UniProt P49137); settings: read-out: Inhibitory effect (%) MAPKAPK2
T10 construct: purchased ProQinase (33PanQinase Activity Assay)
How it was run: as §1

RIPK2 = target: T11, RIPK2 (Homo sapiens, UniProt O43353); settings: read-out: Inhibitory effect (%) RIPK2
T11 construct: purchased ProQinase (33PanQinase Activity Assay)
How it was run: as §1

PLK1 = target: T12, PLK1 (Homo sapiens, UniProt P53350); settings: read-out: Inhibitory effect (%) PLK1
T12 construct: purchased ProQinase (33PanQinase Activity Assay)
How it was run: as §1

HIPK1 = target: T13, HIPK1 (Homo sapiens, UniProt Q86Z02); settings: read-out: Inhibitory effect (%) HIPK1
T13 construct: purchased ProQinase (33PanQinase Activity Assay)
How it was run: as §1

KIT = target: T14, KIT (Homo sapiens, UniProt P10721); settings: read-out: Inhibitory effect (%) KIT
T14 construct: purchased ProQinase (33PanQinase Activity Assay)
How it was run: as §1

EIF2AK1 = target: T15, EIF2AK1 (Homo sapiens, UniProt Q9BQI3); settings: read-out: Inhibitory effect (%) EIF2AK1
T15 construct: purchased Proqinase, Germany
How it was run: as §1

MAPK3 = target: T16, MAPK3 (Homo sapiens, UniProt P27361); settings: read-out: Inhibitory effect (%) MAPK3
T16 construct: purchased ProQinase (33PanQinase Activity Assay)
How it was run: as §1

AKT1 = target: T17, AKT1 (Homo sapiens, UniProt P31749); settings: read-out: Inhibitory effect (%) AKT1
T17 construct: purchased Proqinase, Germany
How it was run: as §1

T8 sequence (P12931 whole entry): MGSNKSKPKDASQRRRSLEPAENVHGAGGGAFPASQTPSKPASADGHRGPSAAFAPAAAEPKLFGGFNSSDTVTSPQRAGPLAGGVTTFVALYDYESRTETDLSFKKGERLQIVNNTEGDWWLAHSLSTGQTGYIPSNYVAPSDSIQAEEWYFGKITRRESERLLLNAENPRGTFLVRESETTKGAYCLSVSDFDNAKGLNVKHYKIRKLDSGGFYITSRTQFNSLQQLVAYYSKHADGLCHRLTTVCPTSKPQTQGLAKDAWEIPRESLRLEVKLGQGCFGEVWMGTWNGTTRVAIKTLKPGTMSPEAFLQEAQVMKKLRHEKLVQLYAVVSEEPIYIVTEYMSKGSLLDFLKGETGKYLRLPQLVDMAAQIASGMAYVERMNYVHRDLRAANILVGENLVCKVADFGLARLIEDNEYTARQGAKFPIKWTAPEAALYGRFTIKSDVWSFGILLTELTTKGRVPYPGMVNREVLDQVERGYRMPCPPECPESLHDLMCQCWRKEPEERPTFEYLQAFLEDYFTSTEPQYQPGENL
T9 sequence (P68400 whole entry): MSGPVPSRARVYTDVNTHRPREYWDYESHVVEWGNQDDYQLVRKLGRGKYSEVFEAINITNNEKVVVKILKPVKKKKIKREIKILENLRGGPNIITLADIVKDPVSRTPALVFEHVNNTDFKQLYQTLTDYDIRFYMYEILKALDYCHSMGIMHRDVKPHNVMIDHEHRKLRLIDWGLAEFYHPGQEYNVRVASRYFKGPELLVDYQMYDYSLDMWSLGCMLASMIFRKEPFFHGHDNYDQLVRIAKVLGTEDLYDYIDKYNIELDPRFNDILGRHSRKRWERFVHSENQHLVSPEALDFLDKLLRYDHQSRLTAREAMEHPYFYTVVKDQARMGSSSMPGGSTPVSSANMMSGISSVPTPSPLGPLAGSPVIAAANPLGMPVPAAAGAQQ
T7 sequence (P53667 whole entry): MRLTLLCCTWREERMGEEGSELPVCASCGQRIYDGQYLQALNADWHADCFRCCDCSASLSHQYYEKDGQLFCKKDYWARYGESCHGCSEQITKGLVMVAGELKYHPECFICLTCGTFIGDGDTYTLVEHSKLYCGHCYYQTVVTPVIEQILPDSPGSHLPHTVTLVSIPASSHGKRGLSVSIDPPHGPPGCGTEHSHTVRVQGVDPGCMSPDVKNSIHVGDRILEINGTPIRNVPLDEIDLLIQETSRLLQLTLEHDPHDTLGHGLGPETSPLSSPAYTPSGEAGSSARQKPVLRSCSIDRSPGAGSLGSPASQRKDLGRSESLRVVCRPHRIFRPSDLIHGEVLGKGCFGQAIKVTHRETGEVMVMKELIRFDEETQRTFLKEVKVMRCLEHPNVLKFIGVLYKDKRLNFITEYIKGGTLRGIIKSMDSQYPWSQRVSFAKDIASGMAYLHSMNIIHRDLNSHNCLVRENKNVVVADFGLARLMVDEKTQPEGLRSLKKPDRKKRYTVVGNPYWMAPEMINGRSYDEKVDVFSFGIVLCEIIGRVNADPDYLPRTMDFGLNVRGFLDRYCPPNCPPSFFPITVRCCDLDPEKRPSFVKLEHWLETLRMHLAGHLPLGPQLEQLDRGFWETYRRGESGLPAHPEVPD
T4 sequence (P78368 whole entry): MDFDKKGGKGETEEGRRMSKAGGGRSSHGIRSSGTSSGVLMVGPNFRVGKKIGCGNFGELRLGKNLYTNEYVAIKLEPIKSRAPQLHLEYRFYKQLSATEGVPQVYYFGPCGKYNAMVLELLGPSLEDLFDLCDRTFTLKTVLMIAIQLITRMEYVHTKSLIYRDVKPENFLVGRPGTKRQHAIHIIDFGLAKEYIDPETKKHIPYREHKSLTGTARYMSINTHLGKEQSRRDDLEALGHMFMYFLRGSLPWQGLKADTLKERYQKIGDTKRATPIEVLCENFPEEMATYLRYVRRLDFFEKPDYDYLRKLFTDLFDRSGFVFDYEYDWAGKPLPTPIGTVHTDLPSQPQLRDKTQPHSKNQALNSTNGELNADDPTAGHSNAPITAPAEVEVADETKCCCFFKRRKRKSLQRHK
T12 sequence (P53350 whole entry): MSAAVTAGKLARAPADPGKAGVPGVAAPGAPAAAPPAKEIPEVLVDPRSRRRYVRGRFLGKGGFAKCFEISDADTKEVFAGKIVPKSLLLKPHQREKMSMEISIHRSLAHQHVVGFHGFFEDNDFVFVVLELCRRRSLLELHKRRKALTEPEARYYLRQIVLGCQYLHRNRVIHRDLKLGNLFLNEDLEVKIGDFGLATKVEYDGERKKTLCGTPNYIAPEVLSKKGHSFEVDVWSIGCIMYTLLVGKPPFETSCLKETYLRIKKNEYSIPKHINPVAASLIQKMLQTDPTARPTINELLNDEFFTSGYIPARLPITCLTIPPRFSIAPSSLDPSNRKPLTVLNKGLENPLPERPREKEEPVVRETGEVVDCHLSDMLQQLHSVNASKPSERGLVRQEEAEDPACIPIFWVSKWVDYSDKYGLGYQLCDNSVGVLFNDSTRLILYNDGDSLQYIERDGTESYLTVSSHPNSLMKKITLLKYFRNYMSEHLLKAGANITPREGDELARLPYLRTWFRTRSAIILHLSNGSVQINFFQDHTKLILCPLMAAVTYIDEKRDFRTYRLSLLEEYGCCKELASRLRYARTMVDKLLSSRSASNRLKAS
T10 sequence (P49137 whole entry): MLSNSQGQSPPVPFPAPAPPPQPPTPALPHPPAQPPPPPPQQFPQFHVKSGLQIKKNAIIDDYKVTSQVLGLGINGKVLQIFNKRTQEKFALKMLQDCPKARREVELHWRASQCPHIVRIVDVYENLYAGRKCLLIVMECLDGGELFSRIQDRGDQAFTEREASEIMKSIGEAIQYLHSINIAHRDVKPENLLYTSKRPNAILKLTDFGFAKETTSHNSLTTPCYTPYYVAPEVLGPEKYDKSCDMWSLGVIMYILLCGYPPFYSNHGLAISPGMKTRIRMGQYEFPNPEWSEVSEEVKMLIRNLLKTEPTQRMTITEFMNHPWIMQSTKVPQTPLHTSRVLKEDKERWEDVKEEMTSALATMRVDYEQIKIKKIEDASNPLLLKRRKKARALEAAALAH
T17 sequence (P31749 whole entry): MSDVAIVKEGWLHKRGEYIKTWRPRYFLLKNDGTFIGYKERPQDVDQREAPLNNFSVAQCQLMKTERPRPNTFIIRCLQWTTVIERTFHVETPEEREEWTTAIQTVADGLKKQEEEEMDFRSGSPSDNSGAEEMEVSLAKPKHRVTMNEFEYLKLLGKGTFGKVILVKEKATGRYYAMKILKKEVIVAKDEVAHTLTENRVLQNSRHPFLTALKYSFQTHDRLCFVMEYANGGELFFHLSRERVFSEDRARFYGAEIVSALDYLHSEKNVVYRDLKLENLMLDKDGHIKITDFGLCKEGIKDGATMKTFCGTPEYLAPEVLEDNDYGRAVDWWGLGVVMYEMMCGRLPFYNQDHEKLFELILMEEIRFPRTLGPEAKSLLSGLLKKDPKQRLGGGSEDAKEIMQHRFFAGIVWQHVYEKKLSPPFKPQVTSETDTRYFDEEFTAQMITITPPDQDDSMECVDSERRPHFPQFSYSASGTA
T3 sequence (P23458 whole entry): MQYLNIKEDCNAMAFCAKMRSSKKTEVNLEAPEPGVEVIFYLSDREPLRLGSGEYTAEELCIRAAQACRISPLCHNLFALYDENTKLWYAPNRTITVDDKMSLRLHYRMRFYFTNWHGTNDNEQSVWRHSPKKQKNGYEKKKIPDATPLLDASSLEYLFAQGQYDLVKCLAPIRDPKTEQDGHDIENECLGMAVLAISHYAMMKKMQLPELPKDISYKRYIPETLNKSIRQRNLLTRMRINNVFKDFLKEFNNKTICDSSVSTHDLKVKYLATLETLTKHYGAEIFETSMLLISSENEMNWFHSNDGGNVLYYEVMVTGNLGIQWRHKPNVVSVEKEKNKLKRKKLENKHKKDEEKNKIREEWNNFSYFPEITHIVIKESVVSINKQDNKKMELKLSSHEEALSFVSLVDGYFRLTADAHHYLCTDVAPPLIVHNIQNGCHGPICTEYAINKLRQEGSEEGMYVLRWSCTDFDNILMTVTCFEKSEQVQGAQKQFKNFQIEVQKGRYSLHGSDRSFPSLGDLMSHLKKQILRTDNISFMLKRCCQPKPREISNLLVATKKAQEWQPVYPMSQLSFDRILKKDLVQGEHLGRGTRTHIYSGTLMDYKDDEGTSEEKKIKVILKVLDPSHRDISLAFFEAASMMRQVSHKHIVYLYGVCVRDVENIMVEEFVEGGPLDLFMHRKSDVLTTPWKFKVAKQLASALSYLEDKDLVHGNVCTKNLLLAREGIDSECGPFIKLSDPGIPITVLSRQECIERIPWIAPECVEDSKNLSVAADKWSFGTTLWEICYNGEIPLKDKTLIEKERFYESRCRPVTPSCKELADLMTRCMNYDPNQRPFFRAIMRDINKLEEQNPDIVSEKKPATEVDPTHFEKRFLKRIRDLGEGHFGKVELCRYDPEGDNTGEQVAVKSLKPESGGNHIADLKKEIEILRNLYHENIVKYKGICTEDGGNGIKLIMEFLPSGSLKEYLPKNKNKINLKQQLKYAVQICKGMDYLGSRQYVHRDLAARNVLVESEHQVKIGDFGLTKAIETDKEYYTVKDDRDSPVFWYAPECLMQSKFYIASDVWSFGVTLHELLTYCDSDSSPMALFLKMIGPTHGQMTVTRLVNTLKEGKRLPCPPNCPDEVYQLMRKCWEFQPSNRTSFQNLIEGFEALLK
T16 sequence (P27361 whole entry): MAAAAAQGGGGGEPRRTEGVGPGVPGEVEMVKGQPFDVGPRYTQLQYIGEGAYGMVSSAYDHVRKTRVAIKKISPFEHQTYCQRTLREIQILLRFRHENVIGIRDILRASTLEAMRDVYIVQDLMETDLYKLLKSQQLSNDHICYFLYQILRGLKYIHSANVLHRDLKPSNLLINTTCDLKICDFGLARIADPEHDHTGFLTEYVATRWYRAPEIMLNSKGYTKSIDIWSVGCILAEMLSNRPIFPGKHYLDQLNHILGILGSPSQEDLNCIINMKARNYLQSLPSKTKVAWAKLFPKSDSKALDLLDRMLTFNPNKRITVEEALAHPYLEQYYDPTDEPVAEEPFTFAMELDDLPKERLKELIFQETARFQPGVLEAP

SMILES | inhibition at 0.1 µM (IKBKB) [%] | inhibition at 0.1 µM (DYRK1A) [%] | inhibition at 0.1 µM (JAK1) [%] | inhibition at 0.1 µM (CSNK1G2) [%] | inhibition at 0.1 µM (DNAPK) [%] | inhibition at 0.1 µM (FER) [%] | inhibition at 0.1 µM (LIMK1) [%] | inhibition at 0.1 µM (SRC) [%] | inhibition at 0.1 µM (CSNK2A1) [%] | inhibition at 0.1 µM (MAPKAPK2) [%] | inhibition at 0.1 µM (RIPK2) [%] | inhibition at 0.1 µM (PLK1) [%] | inhibition at 0.1 µM (HIPK1) [%] | inhibition at 0.1 µM (KIT) [%] | inhibition at 0.1 µM (EIF2AK1) [%] | inhibition at 0.1 µM (MAPK3) [%] | inhibition at 0.1 µM (AKT1) [%]
c1ccc2c(-c3cnn4cc(-c5ccc(N6CCNCC6)cc5)cnc34)ccnc2c1 [LDN-193189, reference compound] | 1.34 | -15.6 | -10.9 | -23.1 | -29.6 | 14.4 | 8.92 | 2.89 | -10.9 | 0.06 | 91.1 | -21.7 | -13.4 | -20.3 | -16.3 | -8.08 | 16.1
CN1CCc2cccc(c2)Nc2nccc(n2)N2CCCc3cc(ccc32)C1 [OD16] | 1.32 | -6.26 | 23.1 | -15.6 | -8.88 | -18.9 | 30.3 | -19.4 | -9.27 | -14.6 | 36.5 | -5.35 | -7.23 | 33 | -7.88 | -13.8 | -4.07
CN1CCC(=O)NCCNc2ccn3ncc(c3n2)-c2cccc(c2)C1 [OD29] | -9.1 | -7.58 | -3.74 | -0.5 | 12.9 | -7.91 | 1.15 | -4.82 | -1.02 | -4.8 | 62.5 | -21.2 | 6.23 | 7.49 | -0.05 | -7.55 | -2.83
